Measured values published in article PMC6934184, “Selective DNA-PKcs inhibition extends the therapeutic index of localized radiotherapy and chemotherapy” (The Journal of Clinical Investigation, 2019).

Biological target: T1, MYO3B (MYO3 beta) (Homo sapiens, UniProt Q8WXR4)
T1 construct: purchased Thermo Fisher Scientific (Life Technologies) SelectScreen
Test: SelectScreen LanthaScreen
Format: binding
Conditions: read-out: % displacement
Summary of the method: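 Percent values come from Thermo SelectScreen profiling of NU5455, combining activity and binding assays. CSF1R was run in Z'LYTE format at Km app ATP, and CAMK1 in Adapta format with ATP listed at 10.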

T1 sequence (Q8WXR4 whole entry): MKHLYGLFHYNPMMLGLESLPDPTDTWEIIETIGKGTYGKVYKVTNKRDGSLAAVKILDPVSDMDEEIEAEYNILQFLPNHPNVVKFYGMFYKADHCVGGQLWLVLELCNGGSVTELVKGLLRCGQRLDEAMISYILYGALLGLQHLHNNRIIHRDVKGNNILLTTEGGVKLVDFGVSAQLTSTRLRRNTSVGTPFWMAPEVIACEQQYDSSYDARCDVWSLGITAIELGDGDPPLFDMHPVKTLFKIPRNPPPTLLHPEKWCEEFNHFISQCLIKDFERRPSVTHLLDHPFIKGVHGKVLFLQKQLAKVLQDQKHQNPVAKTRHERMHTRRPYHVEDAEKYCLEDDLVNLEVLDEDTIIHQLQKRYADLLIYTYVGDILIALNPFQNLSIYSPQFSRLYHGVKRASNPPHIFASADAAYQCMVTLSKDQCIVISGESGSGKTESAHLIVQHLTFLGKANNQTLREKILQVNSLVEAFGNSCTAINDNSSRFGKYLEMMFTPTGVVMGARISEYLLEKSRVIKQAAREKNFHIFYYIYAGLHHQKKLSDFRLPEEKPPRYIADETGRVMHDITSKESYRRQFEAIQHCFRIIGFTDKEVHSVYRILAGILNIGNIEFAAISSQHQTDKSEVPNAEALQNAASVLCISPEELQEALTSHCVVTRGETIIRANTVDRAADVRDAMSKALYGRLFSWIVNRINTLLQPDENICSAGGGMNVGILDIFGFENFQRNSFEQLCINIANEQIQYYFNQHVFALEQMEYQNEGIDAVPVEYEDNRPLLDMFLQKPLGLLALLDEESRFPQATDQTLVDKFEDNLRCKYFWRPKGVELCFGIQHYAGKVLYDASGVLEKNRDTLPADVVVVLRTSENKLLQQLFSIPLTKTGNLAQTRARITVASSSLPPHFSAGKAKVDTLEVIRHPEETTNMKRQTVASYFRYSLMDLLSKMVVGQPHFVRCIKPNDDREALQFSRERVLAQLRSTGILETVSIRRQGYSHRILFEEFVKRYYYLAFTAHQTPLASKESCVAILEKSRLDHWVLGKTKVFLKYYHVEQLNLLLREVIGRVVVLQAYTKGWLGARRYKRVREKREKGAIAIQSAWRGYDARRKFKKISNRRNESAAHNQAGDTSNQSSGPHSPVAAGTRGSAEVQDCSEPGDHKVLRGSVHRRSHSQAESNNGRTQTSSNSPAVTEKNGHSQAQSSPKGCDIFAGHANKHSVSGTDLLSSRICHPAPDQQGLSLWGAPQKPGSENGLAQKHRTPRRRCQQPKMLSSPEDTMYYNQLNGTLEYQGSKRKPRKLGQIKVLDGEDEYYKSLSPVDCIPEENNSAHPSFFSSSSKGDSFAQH

Structure (SMILES): CN(C(=O)CN1CCOCC1)c1ccc2sc3c(-c4cccc5c(=O)cc(N6CC7CCC(C6)O7)oc45)cccc3c2c1 [NU5455]
- inhibition at 1 µM: 2.3%
